Patent US11014908B2, “Chemical compounds” (Pfizer Inc., priority 2018, dated 2021)
pIC50: −log10 of the molar value.

Experiments:
HbS = biological target: T1, HbS (Homo sapiens, UniProt P68871+P69905, E7V); assay: 'R'-'T' assay (conversion of oxy HbS to deoxy HbS under deoxygenating conditions); assay type: biochemical; conditions: 50% inhibition of HbS 'R'-'T' conversion; 3 uM HbS, <1% O2
T1 construct: HbS was obtained from the blood of homozygous S/S patients; from tissue; host or cells: red blood cells of homozygous S/S patients
How it was run: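 Oxy HbS diluted to 3 µM in 100 mM potassium phosphate pH 7.4, incubated 1 h at room temperature with compound, then held under <1% O2 for 2 h. Conversion followed by background-corrected 415/430 nm absorbance ratio at 0, 90 and 120 min; percent effect normalized to tucaresol, IC50 from concentration series.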

Hb in mouse whole blood = assay: Whole blood oxygen affinity assay (Hemox analyzer), mouse blood; conditions: 1 mM compound, 1 hour at 25 C, relative to DMSO
Description: (§1) Whole Blood Oxygen Affinity Assay
(§2) Oxygen affinity is a marker of the ability of Hb to bind and release oxygen in solution. It can be determined in whole blood by measuring the percentage of oxygenated and deoxygenated Hb present at a given oxygen concentration. Oxygen affinity is expressed as the p50, the partial pressure of oxygen at which 50% of the Hb in solution has oxygen bound, or the p20, the partial pressure of oxygen at which 20% of the Hb in solution has oxygen bound.
(§3) To determine the effects of compounds of the invention on oxygen affinity the p50 and p20 were measured in human, dog, and mouse whole blood using a Hemeox Analyzer (TCS Scientific). The blood was spiked with a compound of the invention to a concentration of 1 mM and incubated for 1 hour at 25 C with constant rotation. A concentration of 1 mM of compound was selected to approximate 20% hemoglobin occupancy in whole blood. Controls with the same concentration of DMSO, but no compound were incubated in the same way at the same time. Following incubation, samples were immediately assayed for oxygen affinity using the Hemox analyzer. […] Once samples had reached an pO2 of >150 torr, the measurement was initiated by switching to N2, and the percent oxyhemoglobin as a function of partial pressure was recorded. The p20 and p50 of each sample were recorded from the instrument readout. […]

human HbA = human HbA (Homo sapiens, UniProt P68871+P69905); assay: Co-crystallization with HbA; conditions: 1.85 Å co-crystal structure with human HbA
Description: Co-Crystallization with HbA
The binding of the compound of Example 58 to hemoglobin (Hb) was further investigated through co-crystallization experiments. Given the structural and functional similarity of HbS and HbA, and the large quantity of material needed for structural studies, purified HbA was utilized for these studies.
HbA with Example 58 was crystallized according to published protocols (Lee et al. “Crowning proteins: modulating the protein surface properties using crown ethers”, Angew Chem Int Ed Engl 2014; 53(48):13054-13058). Briefly, 20 mg/mL HbA in 20 mM Tris-HCl (pH 8.0) was mixed with equal volume of 50 mM 18-crown-6 solution and incubated at 20° C. for 20 minutes. Example 58 was then added to a final concentration of 1.5 mM and further incubated for an additional 1 hr. Crystallization was performed at 20° C. using hanging drop vapor diffusion method by mixing equal volumes of protein and reservoir solution containing 0.1 M Tris-HCl (pH 8.0), 0.2 M Li2SO4 and 30-32% PEG 3350. Crystals grew to their maximum size in ˜2 days and the crystals were further soaked overnight with 10 mM Example 58. Diffraction data were collected at the Argonne National Laboratory Advanced Photon Source, beamline 17-ID. The data was processed using autoPROC (Global Phasing Limited) and the structure was solved using 3WHM (PDB code) as a starting model. […]

Hb in dog whole blood = biological target: T2, Hb in dog whole blood (Canis lupus familiaris, UniProt P60524+P60529); assay: Whole blood oxygen affinity assay (Hemox analyzer), dog blood; conditions: 1 mM compound, 1 hour at 25 C, relative to DMSO
T2 construct: measured in human, dog, and mouse whole blood; from tissue; host or cells: dog whole blood
Description: as §1, §2, §3

Row | Structure (SMILES) | pIC50 (HbS) | Reduction in p20 (%) Mouse (Hb in mouse whole blood) | Reduction in p50 (%) Mouse (Hb in mouse whole blood) | Hb conformation bound in co-crystal structure (human HbA) | Reduction in p20 (%) Dog (Hb in dog whole blood) | Reduction in p50 (%) Dog (Hb in dog whole blood)
1 | C[C@H](Oc1cc2cc(F)cc(F)c2nc1N)c1cc(C(=O)O)ccc1-n1cccn1 [Example 21, 3-{(1S)-1-[(2-amino-6,8-difluoroquinolin-3-yl)oxy]ethyl}-4-(1H-pyrazol-1-yl)benzoic Acid] | 5.34 |  |  |  |  | 
2 | C[C@H](Oc1cc2cc(F)ccc2nc1N)c1nc(O)ccc1-n1cccn1 [Example 58, 6-{(1S)-1-[(2-amino-6-fluoroquinolin-3-yl)oxy]ethyl}-5-(1H-pyrazol-1-yl)pyridin-2-ol] | 5.32 | 11 ± 2% | 5 ± 3% | binds to the oxygenated (R state) conformation of Hb | 10 ± 6% | 6 ± 6%
